The source of these data is article PMC8213057, “Targeting ALK2: An Open Science Approach to Developing Therapeutics for the Treatment of Diffuse Intrinsic Pontine Glioma” (Journal of Medicinal Chemistry, 2020).

Structures are written as SMILES. Where “and” joins values, the source holds several entries; their conditions need not be identical. Identical values can stand only once.

One test deals with MSSK1/STK23 (Homo sapiens, UniProt Q9UPE1). Nature of the test: biochemical. The following applies: read-out: % enzyme activity, 1 μM; Run 1, Run 2.
MSSK1/STK23, sequence (Q9UPE1 whole entry): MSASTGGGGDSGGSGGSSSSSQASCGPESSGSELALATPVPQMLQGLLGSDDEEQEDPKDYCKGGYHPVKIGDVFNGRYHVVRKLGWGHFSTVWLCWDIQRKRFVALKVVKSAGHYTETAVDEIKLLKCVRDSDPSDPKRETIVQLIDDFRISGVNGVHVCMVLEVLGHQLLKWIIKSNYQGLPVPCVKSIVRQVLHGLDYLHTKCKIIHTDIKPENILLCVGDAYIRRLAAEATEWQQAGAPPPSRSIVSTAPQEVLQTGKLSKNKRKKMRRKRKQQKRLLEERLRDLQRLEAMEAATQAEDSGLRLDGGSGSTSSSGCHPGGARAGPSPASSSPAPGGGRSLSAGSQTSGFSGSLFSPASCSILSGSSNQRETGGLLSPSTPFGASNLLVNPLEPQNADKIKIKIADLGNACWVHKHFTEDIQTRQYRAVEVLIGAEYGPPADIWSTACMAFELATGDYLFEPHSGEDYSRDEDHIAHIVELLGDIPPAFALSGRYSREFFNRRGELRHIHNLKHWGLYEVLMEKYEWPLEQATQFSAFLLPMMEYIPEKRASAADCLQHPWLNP
In another test the target is T1, CK1a1L (Homo sapiens, UniProt Q8N752).
T1 sequence (Q8N752 1-337): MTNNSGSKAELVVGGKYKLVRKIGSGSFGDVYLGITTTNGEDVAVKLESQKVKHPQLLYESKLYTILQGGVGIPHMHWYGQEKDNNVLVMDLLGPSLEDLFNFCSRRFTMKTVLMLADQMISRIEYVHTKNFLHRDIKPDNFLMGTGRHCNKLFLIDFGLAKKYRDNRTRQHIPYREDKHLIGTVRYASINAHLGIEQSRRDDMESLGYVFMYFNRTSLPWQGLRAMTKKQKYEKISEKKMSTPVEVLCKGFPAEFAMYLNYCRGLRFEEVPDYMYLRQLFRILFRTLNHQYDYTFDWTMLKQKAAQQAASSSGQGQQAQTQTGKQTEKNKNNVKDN
The following applies: 1 μM; Run 1, Run 2.

For another test, the target named is T2, TYRO3/SKY (Homo sapiens, UniProt Q06418).
T2 sequence (Q06418 41-890): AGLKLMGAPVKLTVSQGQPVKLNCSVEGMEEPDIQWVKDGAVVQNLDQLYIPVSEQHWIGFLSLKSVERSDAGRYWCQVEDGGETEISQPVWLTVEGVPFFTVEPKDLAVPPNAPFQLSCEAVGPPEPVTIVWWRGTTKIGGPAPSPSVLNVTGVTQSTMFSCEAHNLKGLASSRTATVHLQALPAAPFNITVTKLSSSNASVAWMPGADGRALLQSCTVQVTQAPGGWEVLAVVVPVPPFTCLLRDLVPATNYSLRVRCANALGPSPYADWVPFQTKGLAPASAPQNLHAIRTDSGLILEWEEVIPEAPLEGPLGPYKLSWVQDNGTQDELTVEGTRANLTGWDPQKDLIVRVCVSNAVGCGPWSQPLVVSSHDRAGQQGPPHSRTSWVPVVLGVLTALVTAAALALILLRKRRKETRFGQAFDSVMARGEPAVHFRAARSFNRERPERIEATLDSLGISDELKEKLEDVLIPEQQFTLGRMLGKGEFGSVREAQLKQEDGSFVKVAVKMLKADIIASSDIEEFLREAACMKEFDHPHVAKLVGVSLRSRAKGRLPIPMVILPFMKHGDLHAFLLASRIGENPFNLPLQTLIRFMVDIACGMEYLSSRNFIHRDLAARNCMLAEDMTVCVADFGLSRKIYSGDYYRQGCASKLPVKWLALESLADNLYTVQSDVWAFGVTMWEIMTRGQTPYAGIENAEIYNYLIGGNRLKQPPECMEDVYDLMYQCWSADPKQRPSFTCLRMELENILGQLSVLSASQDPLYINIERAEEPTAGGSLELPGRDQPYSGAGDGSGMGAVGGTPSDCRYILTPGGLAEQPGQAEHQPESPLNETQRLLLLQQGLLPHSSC
The following applies: 1 μM; Run 1, Run 2.

Another test deals with GRK5 (Homo sapiens, UniProt P34947). As to conditions: 1 μM; Run 1, Run 2.
GRK5, sequence (P34947 whole entry): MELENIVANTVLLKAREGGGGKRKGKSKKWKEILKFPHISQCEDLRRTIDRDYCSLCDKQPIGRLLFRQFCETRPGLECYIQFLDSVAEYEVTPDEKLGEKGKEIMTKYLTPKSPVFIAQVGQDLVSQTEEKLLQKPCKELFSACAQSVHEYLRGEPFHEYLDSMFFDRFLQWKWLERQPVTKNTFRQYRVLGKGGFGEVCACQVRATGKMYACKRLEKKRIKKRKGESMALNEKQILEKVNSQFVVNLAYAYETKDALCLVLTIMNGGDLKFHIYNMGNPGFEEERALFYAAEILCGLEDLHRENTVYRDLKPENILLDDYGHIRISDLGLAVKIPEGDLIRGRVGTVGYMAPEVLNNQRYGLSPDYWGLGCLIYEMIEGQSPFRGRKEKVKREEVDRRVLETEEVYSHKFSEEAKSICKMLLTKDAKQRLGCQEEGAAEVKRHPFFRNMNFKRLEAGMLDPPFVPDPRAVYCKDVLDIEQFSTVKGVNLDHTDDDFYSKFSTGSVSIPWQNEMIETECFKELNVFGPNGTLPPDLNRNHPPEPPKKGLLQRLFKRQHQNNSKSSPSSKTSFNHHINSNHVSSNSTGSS
The target of the next test is T3, NLK (Homo sapiens, UniProt Q9UBE8).
T3 construct: purchased Reaction Biology Corporation
T3 sequence (Q9UBE8 1-527): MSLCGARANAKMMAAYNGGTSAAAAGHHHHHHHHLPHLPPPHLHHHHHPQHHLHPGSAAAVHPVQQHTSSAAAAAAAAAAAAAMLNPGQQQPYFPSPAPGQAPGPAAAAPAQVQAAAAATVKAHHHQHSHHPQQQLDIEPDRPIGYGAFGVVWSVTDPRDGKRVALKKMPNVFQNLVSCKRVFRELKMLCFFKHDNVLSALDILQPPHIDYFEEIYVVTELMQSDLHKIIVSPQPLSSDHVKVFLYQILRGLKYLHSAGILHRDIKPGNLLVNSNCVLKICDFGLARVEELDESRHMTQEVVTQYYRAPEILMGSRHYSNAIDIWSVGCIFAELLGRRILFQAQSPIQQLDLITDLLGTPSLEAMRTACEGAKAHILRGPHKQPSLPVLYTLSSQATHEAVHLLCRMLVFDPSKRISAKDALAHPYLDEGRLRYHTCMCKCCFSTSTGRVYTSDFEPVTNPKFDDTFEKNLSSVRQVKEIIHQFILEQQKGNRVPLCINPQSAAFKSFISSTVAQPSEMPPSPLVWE
Nature of the test: 375-member kinase panel. The format is biochemical. As to conditions: Run 1, Run 2; for % enzyme activity: 1 μM; for remaining activity at 1 µM: read-out: % enzyme activity, 1 μM.

In another test the target is T4, DYRK2 (Homo sapiens, UniProt Q92630).
T4 sequence (Q92630 1-601): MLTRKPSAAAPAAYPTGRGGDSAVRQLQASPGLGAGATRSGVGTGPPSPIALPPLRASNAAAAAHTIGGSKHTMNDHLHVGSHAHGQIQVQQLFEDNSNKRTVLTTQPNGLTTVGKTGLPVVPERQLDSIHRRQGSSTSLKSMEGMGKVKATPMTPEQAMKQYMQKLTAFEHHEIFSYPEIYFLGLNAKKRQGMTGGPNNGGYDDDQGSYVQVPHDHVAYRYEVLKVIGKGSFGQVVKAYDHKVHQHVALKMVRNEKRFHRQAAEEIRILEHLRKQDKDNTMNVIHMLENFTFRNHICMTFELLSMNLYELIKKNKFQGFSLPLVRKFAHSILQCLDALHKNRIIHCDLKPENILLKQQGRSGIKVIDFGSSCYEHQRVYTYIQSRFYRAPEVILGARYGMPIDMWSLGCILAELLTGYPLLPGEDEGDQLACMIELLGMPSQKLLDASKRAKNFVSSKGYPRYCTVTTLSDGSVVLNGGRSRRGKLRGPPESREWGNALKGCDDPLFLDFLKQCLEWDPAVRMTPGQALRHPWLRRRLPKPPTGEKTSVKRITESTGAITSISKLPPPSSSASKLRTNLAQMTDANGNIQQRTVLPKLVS
As to conditions: 1 μM; Run 1, Run 2.

Take `COc1cc(-c2cncc(-c3ccc(N4CCN(C)CC4)cc3)c2C)cc(F)c1C(N)=O` [Compound 26a, 2-Fluoro-6-methoxy-4-(4-methyl-5-(4-(4-methylpiperazin-1-yl)phenyl)pyridin-3-yl)benzamide]: the % enzyme activity at 1 μM in the test with SIK2 is 32% and 30.7%. The values for the remaining activity at 1 µM at MSSK1/STK23 and at NLK were 99.3% and 22%, respectively. Besides, the “% enzyme activity” value at CK1a1L is 97.55%; at TYRO3/SKY, 83.48%; at GRK5, 99.06%; on NLK it was 20.81%; at DYRK2, 95.06%.
Consider `COc1cc(-c2cncc(-c3ccc(N4C[C@@H](C)N(C)[C@@H](C)C4)cc3)c2C)cc(F)c1C(N)=O` [Compound 26c, 2-Fluoro-6-methoxy-4-(4-methyl-5-(4-((3R,5S)-3,4,5-trimethylpiperazin-1-yl)phenyl)pyridin-3-yl)benzamide], for which the % enzyme activity at 1 μM with SIK2 was 43.9% and 43.5%. Also, the remaining activity at 1 µM at MSSK1/STK23 amounted to 99.8%; on NLK, 50.4%. The “% enzyme activity” value worked out at 99.15% on CK1a1L; 93.66% at TYRO3/SKY; 91.62% on GRK5; 47.74% on NLK; 98.44% at DYRK2.
